Experimental data taken from patent US9265276B2, “Reducing astringency in compositions containing phenolic compounds” (Nestec S.A., priority 2008, dated 2016).

Key:
[1] = Free and bound catechins: binding to lecithin (centrifugation, HPLC); conditions: for binding to the lecithin (in words): green tea samples with lecithin 0.05, 0.1, 0.15%
Method: Phosphate buffer was added to each sample to give a final concentration of 20 mM at pH 6.0 before they were pre-homogenized with an Ultraturrax at full speed. The dispersions were flushed with nitrogen for 5 minutes and then green tea extract was added for a final concentration of 0.2%. After gentle stirring for 15 min the mixes were finally homogenized with a Microfluidizer processor (Microfluidics, Newton, Mass., USA) with 1 run at 250 bar. […] The homogenized dispersions were filled into 1 lt glass bottles and were sterilized (30 sec at 80° C.) in a water bath heated with steam. Green tea catechins were analysed in the fresh and stored samples by HPLC on a C-18 column, using UV detection at 280 nm. For total catechin determination samples were treated with concentrated acetic acid and the extracts were stabilised with ascorbic acid, EDTA and acetonitrile. For free catechin determination each sample was previously spun at 14,000×g for 30 min using an Eppendorf (Dr Vaudaux A G, Binningen, C H) centrifuge 5415. The resulting supernatant was then treated as previously described. Stability and binding to phospholipids were calculated for (-)-epigallocatechin (Egc), (-)-epigallocatechin-3-gallate (Egcg), and caffeine.

[2] = Stability of green tea catechins during storage at room temperature (HPLC); assay type: physicochemical; conditions: for catechins (% recovered): room temperature, pH 6.0
Method: Soya lecithin was dispersed in distilled water to yield different concentrations (0.05%; 0.1% and 0.2%) by stirring the mixes at 37° C. for 2 h. Phosphate buffer was added to each sample to give a final concentration of 20 mM at pH 6.0 before they were pre-homogenized with an Ultraturrax at full speed. The dispersions were flushed with nitrogen for 5 minutes and then green tea extract was added for a final concentration of 0.2%. After gentle stirring for 15 min the mixes were finally homogenized with a Microfluidizer processor (Microfluidics, Newton, Mass., USA) with 1 run at 250 bar. The same protocol was followed for preparing the green tea control except that no lecithin was added. The homogenized dispersions were filled into 1 lt glass bottles and were sterilized (30 sec at 80° C.) in a water bath heated with steam.
The sterilized samples were stored at room temperature up to 25 days. No microbiological contamination with mesophilic germs or Enterobacteriaceae was detected throughout the storage test.
Green tea catechins were analysed in the fresh and stored samples by HPLC on a C-18 column, using UV detection at 280 nm. For total catechin determination samples were treated with concentrated acetic acid and the extracts were stabilised with ascorbic acid, EDTA and acetonitrile. For free catechin determination each sample was previously spun at 14,000×g for 30 min using an Eppendorf (Dr Vaudaux A G, Binningen, C H) centrifuge 5415. The resulting supernatant was then treated as previously described. Stability and binding to phospholipids were calculated for (−)-epigallocatechin (Egc), (−)-epigallocatechin-3-gallate (Egcg), and caffeine.

[3] = green tea 0.2% + lecithin 0.05%, storage 0 d
[4] = green tea 0.2% + lecithin 0.05%, storage 2 d
[5] = green tea 0.2% + lecithin 0.05%, storage 9 d
[6] = green tea 0.2% + lecithin 0.05%, storage 13 d
[7] = green tea 0.2% + lecithin 0.05%, storage 22 d
[8] = green tea 0.2% + lecithin 0.1%, storage 0 d
[9] = green tea 0.2% + lecithin 0.1%, storage 2 d
[10] = green tea 0.2% + lecithin 0.1%, storage 9 d
[11] = green tea 0.2% + lecithin 0.1%, storage 13 d
[12] = green tea 0.2% + lecithin 0.1%, storage 22 d
[13] = green tea 0.2% + lecithin 0.2%, storage 0 d
[14] = green tea 0.2% + lecithin 0.2%, storage 2 d
[15] = green tea 0.2% + lecithin 0.2%, storage 9 d
[16] = green tea 0.2% + lecithin 0.2%, storage 13 d
[17] = green tea 0.2% + lecithin 0.2%, storage 22 d

O=C(O[C@@H]1Cc2c(O)cc(O)cc2O[C@@H]1c1ccc(O)c(O)c1)c1cc(O)c(O)c(O)c1 [Ecg, epicatechin gallate]
binding to the lecithin (in words) [1]: interact with the added lecithin

Oc1cc(O)c2c(c1)O[C@H](c1cc(O)c(O)c(O)c1)[C@H](O)C2 [Egc, (−)-epigallocatechin]
catechins (% recovered) [2, 3]: 100%
catechins (% recovered) [2, 4]: 92%
catechins (% recovered) [2, 5]: 72%
catechins (% recovered) [2, 6]: 59%
catechins (% recovered) [2, 7]: 42%
catechins (% recovered) [2, 8]: 100%
catechins (% recovered) [2, 9]: 94%
catechins (% recovered) [2, 10]: 70%
catechins (% recovered) [2, 11]: 57%
catechins (% recovered) [2, 12]: 39%
catechins (% recovered) [2, 13]: 100%
catechins (% recovered) [2, 14]: 91%
catechins (% recovered) [2, 15]: 64%
catechins (% recovered) [2, 16]: 49%
catechins (% recovered) [2, 17]: 30%
catechins (% recovered) ([2]; green tea 0.2%, storage 0 d): 100%
catechins (% recovered) ([2]; green tea 0.2%, storage 2 d): 93%
catechins (% recovered) ([2]; green tea 0.2%, storage 9 d): 65%
catechins (% recovered) ([2]; green tea 0.2%, storage 13 d): 50%
catechins (% recovered) ([2]; green tea 0.2%, storage 22 d): 28%
bound catechins (% recovered in pellet) [1, 3]: 1%
bound catechins (% recovered in pellet) [1, 4]: 3%
bound catechins (% recovered in pellet) [1, 5]: 1%
bound catechins (% recovered in pellet) [1, 6]: 1%
bound catechins (% recovered in pellet) [1, 7]: 0%
bound catechins (% recovered in pellet) [1, 8]: 2%
bound catechins (% recovered in pellet) [1, 9]: 4%
bound catechins (% recovered in pellet) [1, 10]: 2%
bound catechins (% recovered in pellet) [1, 11]: 2%
bound catechins (% recovered in pellet) [1, 12]: 2%
bound catechins (% recovered in pellet) [1, 13]: 5%
bound catechins (% recovered in pellet) [1, 14]: 6%
bound catechins (% recovered in pellet) [1, 15]: 5%
bound catechins (% recovered in pellet) [1, 16]: 5%
bound catechins (% recovered in pellet) [1, 17]: 6%
bound catechins (% recovered in pellet) ([1]; green tea 0.2%, storage 0 d): 3%
bound catechins (% recovered in pellet) ([1]; green tea 0.2%, storage 2 d): 0%
bound catechins (% recovered in pellet) ([1]; green tea 0.2%, storage 9 d): 0%
bound catechins (% recovered in pellet) ([1]; green tea 0.2%, storage 13 d): 0%
bound catechins (% recovered in pellet) ([1]; green tea 0.2%, storage 22 d): 0%

O=C(O[C@@H]1Cc2c(O)cc(O)cc2O[C@@H]1c1cc(O)c(O)c(O)c1)c1cc(O)c(O)c(O)c1 [Egcg, (−)-epigallocatechin-3-gallate]
catechins (% recovered) [2, 3]: 100%
catechins (% recovered) [2, 4]: 95%
catechins (% recovered) [2, 5]: 78%
catechins (% recovered) [2, 6]: 68%
catechins (% recovered) [2, 7]: 55%
catechins (% recovered) [2, 8]: 100%
catechins (% recovered) [2, 9]: 98%
catechins (% recovered) [2, 10]: 82%
catechins (% recovered) [2, 11]: 74%
catechins (% recovered) [2, 12]: 62%
catechins (% recovered) [2, 13]: 100%
catechins (% recovered) [2, 14]: 99%
catechins (% recovered) [2, 15]: 88%
catechins (% recovered) [2, 16]: 82%
catechins (% recovered) [2, 17]: 71%
catechins (% recovered) ([2]; green tea 0.2%, storage 0 d): 100%
catechins (% recovered) ([2]; green tea 0.2%, storage 2 d): 94%
catechins (% recovered) ([2]; green tea 0.2%, storage 9 d): 67%
catechins (% recovered) ([2]; green tea 0.2%, storage 13 d): 53%
catechins (% recovered) ([2]; green tea 0.2%, storage 22 d): 33%
stabilisation by lecithin during storage (in words) ([2]; storage of the green tea samples): dose-dependent stabilisation
bound catechins (% recovered in pellet) [1, 3]: 18%
bound catechins (% recovered in pellet) [1, 4]: 17%
bound catechins (% recovered in pellet) [1, 5]: 21%
bound catechins (% recovered in pellet) [1, 6]: 22%
bound catechins (% recovered in pellet) [1, 7]: 22%
bound catechins (% recovered in pellet) [1, 8]: 33%
bound catechins (% recovered in pellet) [1, 9]: 30%
bound catechins (% recovered in pellet) [1, 10]: 37%
bound catechins (% recovered in pellet) [1, 11]: 38%
bound catechins (% recovered in pellet) [1, 12]: 39%
bound catechins (% recovered in pellet) [1, 13]: 46%
bound catechins (% recovered in pellet) [1, 14]: 45%
bound catechins (% recovered in pellet) [1, 15]: 53%
bound catechins (% recovered in pellet) [1, 16]: 55%
bound catechins (% recovered in pellet) [1, 17]: 59%
bound catechins (% recovered in pellet) ([1]; green tea 0.2%, storage 0 d): 1%
bound catechins (% recovered in pellet) ([1]; green tea 0.2%, storage 2 d): 1%
bound catechins (% recovered in pellet) ([1]; green tea 0.2%, storage 9 d): 1%
bound catechins (% recovered in pellet) ([1]; green tea 0.2%, storage 13 d): 2%
bound catechins (% recovered in pellet) ([1]; green tea 0.2%, storage 22 d): 2%
binding to the lecithin (in words) [1]: interact with the added lecithin
percentage of bound Egcg during storage (in words) ([1]; lecithin containing green tea samples during storage): not only remained constant but rather slightly increased with time

Cn1c(=O)c2c(ncn2C)n(C)c1=O [caffeine]
stability during storage (in words) [2]: quite stable under the chosen storage conditions
